The source of these data is US20240301409A1, “Chemically Modified Small Activating RNA” (RACTIGEN THERAPEUTICS, priority 2021, published 2024).

The subject of this series is J82 cells. Kind of series: Apoptosis detection (FITC Annexin V, flow cytometry) in J82 cells with or without PBMC co-culture. The format is cell-based, human. The method, then: J82 cells were transfected with RAG1-40-31 and RAG1-40-53 at final concentrations of 0.1, 1, 10 and 25 nM, and 24 hours after transfection, fresh medium was replaced and a certain ratio of PBMC cells was added (J82 cells:PBMC cells=1:4). The cells were co-cultured for 48 hours. After co-culture, cells were collected and cell apoptosis was detected by flow cytometry. FIGS. 13A-13B show the relative proliferation proportion of J82 cells after the combined treatment with chemically modified saRNA RAG1-40-31 and Mitomycin C. […] Control and DMSO are the blank transfection control and the solvent for dilution control, respectively.
J82 cells were transfected with RAG1-40-31 at 0.1, 1, 10 and 25 nM. After 24 hours of transfection, the cells were refreshed with PBMC cell-containing fresh medium. The PBMC and J82 cells were co-cultured for 48 hours, and then the supernatant was discarded and the cells were collected. 500 μL PBS was added to each well for washing and then discarded, before the addition of 100 μL trypsin/well. 900 μL medium was added to stop digestion and the content was transferred to a 1.5 mL centrifuge tube. All the cells were collected through centrifugation (400 rcf, 5 min) and counted (1˜2×10^5 cells/100 μL Binding Buffer). 100 μL of 1× Binding Buffer (B&D Systems, 51-66121E), 5 μL FITC Annexin V (B&D Systems, 51-65874X) and 5 μL PI (B&D Systems, 51-66211E) were added before incubation in dark at room temperature for 15 minutes. After the incubation, 100 μL of 1× binding buffer was added before blending and transferring to a 96-well plate for analysis with flow cytometer (Beckman Coulter). The sample should be analyzed within 1 hour.
In order to verify this hypothesis, in this example, RAG1-40-31 duplex was selected to transfect J82 cells, and after 24 hours of transfection, the cells were refreshed with fresh medium and PBMC cells at a certain ratio (J82 cells:PBMC cells=1:4) were added, or cells free of PBMC were replaced as control. After 48 hours of co-culture, FITC Annexin V kit was used to detect the apoptosis of tumor cells on a flow cytometer. […] In PBMC-free cell culture, for RAG1-40-31 treatments at 0.1, 1, 10 and 25 nM, the percentages of cells in early apoptosis were 2.3%, 2.6%, 9.4% and 15.5%, respectively, and the percentages of cells in late apoptosis were 5.3%, 5.2%, 6.7% and 9.1%, respectively. In co-culture with PBMC cells, for RAG1-40-31 treatments at 0.1, 1, 10 and 25 nM, the percentages of cells in early apoptosis were 2.0%, 4.5%, 31.5% and 49.3%, respectively, and the percentages of cells in late apoptosis were 5.6%, 7.3%, 6.3% and 5.8%, respectively.
(In flow cytometry, cells or beads pass a laser one at a time.)

[1] abbreviates: co-culture with PBMC cells (1:4) 48 hours, 0.1 nM.
[2] abbreviates: co-culture with PBMC cells (1:4) 48 hours, 1 nM.
[3] abbreviates: co-culture with PBMC cells (1:4) 48 hours, 10 nM.
Where [4] appears, read: co-culture with PBMC cells (1:4) 48 hours, 25 nM.

“RAG1-40-31: saRNA duplex: sense fCfCAACUCAUUCUCCAAG*U*C (SEQ ID NO 16); antisense U*A*fCfUfUGGAGAAfUGAGfUfUGG*fC*A (SEQ ID NO 12) (sense CCAACUCAUUCUCCAAGUC; antisense UACUUGGAGAAUGAGUUGGCA; 2'-F and phosphorothioate modifications; modified_base (1)..(2) (1,2)=2′-fluoro; modified_base (17)..(19) (17,18,19)=phosphorothioate (PS) backbone modification; modified_base (2)..(21) (2,3,19,20,21)=phosphorothioate (PS) backbone modification; modified_base (3)..(20) (3,4,5,12,16,17,20)=2′-fluoro)”: the “percentage of cells in early apoptosis” value reads like this: (PBMC-free cell culture, 0.1 nM) 2.3%; (PBMC-free cell culture, 1 nM) 2.6%; (PBMC-free cell culture, 10 nM) 9.4%; (PBMC-free cell culture, 25 nM) 15.5%; under setting [1], 2.0%; under setting [2], 4.5%. The “percentage of cells in early apoptosis” value under setting [3] was 31.5% and the “percentage of cells in early apoptosis” value under setting [4] amounted to 49.3%. Further, the “percentage of cells in late apoptosis” value is, setting by setting: (PBMC-free cell culture, 0.1 nM) 5.3%; (PBMC-free cell culture, 1 nM) 5.2%; (PBMC-free cell culture, 10 nM) 6.7%; (PBMC-free cell culture, 25 nM) 9.1%; under setting [1], 5.6%; under setting [2], 7.3%. For the same substance, the “percentage of cells in late apoptosis” value under setting [3] was 6.3% and the “percentage of cells in late apoptosis” value under setting [4] is on record as 5.8%.
